Results on ten compounds are retold here after publication PMC3561933 (Bioorganic & medicinal chemistry letters, 2012).

The subject of data set [1] is HIV-1 Y181C combined with Lys103Asn. To be noted: cited from earlier work.
For data set [2], the system named is HIV-1 strains with Tyr181Cys (Y181C) mutation. As to conditions: cited from earlier work.
The conditions of data set [3]: observed; cited from earlier work.
The test system of data set [4] is HIV-1 Y181C variant. As to conditions: ref 7b, cited from earlier work.
The subject of data set [5] is HIV-1 IIIB (wild-type).
In data set [6] the test system is HIV-1 Y181C variant. It is filed as cell-based. To be noted: relative to 1f.

Each structure is given as a SMILES string. pEC50: −log10 of the molar value.

Consider `O=C1Nc2ccc(Cl)cc2[C@@](C#CC2CC2)(C(F)(F)F)O1` [efavirenz], for which the “activity towards Y181C combined with Lys103Asn” value in data set [1] is “debilitated”. With `CC(C)Nc1cccnc1N1CCN(C(=O)c2cc3cc(NS(C)(=O)=O)ccc3[nH]2)CC1` [delavirdine], the “activity towards HIV-1 strains with Y181C mutation” value in data set [2] was “inactive”. Regarding `CC(C)c1ccccc1` [isopropylbenzene], the “octanol/water log P” value in data set [3] is given as 3.7. `N#Cc1ccc(Nc2ncc(Cc3c(F)cccc3F)o2)cc1` [Compound 1a]: the “activity towards a Y181C-containing strain” value in data set [4] (earlier work) is “no activity”.

On to `CCc1cc(F)c(Cc2cnc(Nc3ccc(Oc4cccnc4)c(Cl)c3)o2)c(F)c1` [Compound 2b], for which the “fold activity boost against WT virus in comparison to 2a” value in data set [5] (relative to 2a) was found to be 5 fold. The term pEC50 denotes the negative decadic logarithm of the EC50, by convention in mol/L. As to `Fc1cccc(F)c1Cc1cnc(Nc2ccc(Oc3cccnc3)c(Cl)c2)o1` [Compound 2a], the pEC50 in data set [4] (read-out: EC50 for the Y181C variant, earlier work) is 5.52. Consider `c1ccc(C2CC2)cc1` [cyclopropylbenzene], for which the “octanol/water log P” value in data set [3] was 3.3.

As for `Cc1ccnc2c1NC(=O)c1cccnc1N2C1CC1` [nevirapine], the “activity towards HIV-1 strains with Y181C mutation” value in data set [2] was “inactive”. `CCc1cc(F)c(Cc2cnc(Nc3ccc(C#N)c(Cl)c3)o2)c(F)c1` [Compound 1e]: the “gain in WT potency over 1b (factor)” value in data set [5] (relative to 1b) turned out to be 5. In the case of `N#Cc1ccc(Nc2ncc(Cc3c(F)cc(C4CC4)cc3F)o2)cc1Cl` [Compound 1g], the “fold less active towards Y181C variant than 1f” value in data set [6] was found to be 200 fold. In addition, the “factor less active against WT virus than 1f” value in data set [5] (relative to 1f) came out at 5.
